Tested on: P.yoelii
Test: In vivo effect on P.yoelii in mice (inhibition of parasitaemia)
Details: for inhibition in vivo at 0.5 mg/kg: 0.50 mg/Kg × 7; for inhibition in vivo at 1 mg/kg: 1.0 mg/Kg × 7; for inhibition in vivo at 2.5 mg/kg: 2.5 mg/Kg × 7; for inhibition in vivo at 5 mg/kg: 5.0 mg/Kg × 7; for ED50 for naphthoquinone: 5760 min; for inhibition in vivo at 3 mg/kg: 3.0 mg/Kg × 7
Procedure: The naphthoquinone and the pyridinol were each suspended in 0.25% (w/v) celacol in water by milling for 16-24 hours at 26° C. The suspensions were subsequently serially diluted with 0.25% (w/v) celacol in water. At time 0, 0.1 ml of a suspension of 10^7 P.yoelii-parasitised red blood cells/ml of phosphate buffered saline were injected intravenously into 15-20 g mice through a tail vein. Groups of 5 mice per treatment were dosed orally at times 6, 22, 30, 46, 54, 70 and 78 hours with 0.2 ml of the drug suspension. Tail-blood smears were taken at 96 hours, stained with Giemsa and the percentage of red blood cells infected determined and compared to untreated, infected controls. Percent inhibition was correlated with dose to provide ED50 values for each drug alone. In subsequent experiments dilutions of the two drugs, alone and in combination were used, and the percentage inhibition of parasitaemia and ED50 values (of each drug at fixed concentrations of the other) were determined. The results are shown respectively in Tables V and VI. A number of combinations of clopidol (4-pyridinol) and naphthoquinones were assayed and compared with each drug alone for their antimalarial effect against P.yoelii in vivo by the method of Example 4.

[1] = Plasmodium yoelii, po, 96 h, naphthoquinone alone
[2] = naphthoquinone 0.50 + clopidol 1.4 mg/Kg × 7
[3] = naphthoquinone 0.50 + clopidol 4.3 mg/Kg × 7
[4] = naphthoquinone 1.0 + clopidol 1.4 mg/Kg × 7
[5] = naphthoquinone 1.0 + clopidol 4.3 mg/Kg × 7
[6] = naphthoquinone 2.5 + clopidol 1.4 mg/Kg × 7
[7] = naphthoquinone 2.5 + clopidol 4.3 mg/Kg × 7
[8] = naphthoquinone 5.0 + clopidol 1.4 mg/Kg × 7
[9] = naphthoquinone 5.0 + clopidol 4.3 mg/Kg × 7

CCC1(CC)CCC(C2=C(O)C(=O)c3ccccc3C2=O)CC1
inhibition in vivo at 0.5 mg/kg [1]: 5%
inhibition in vivo at 1 mg/kg [1]: 4%
% inhibition of parasitaemia (combination) [2]: 14%
% inhibition of parasitaemia (combination) [3]: 54%
% inhibition of parasitaemia (combination) [4]: 68%
% inhibition of parasitaemia (combination) [5]: 75%

CC(C)(C)OC1CCC(C2=C(O)C(=O)c3ccccc3C2=O)CC1 (stereo not shown)
inhibition in vivo at 0.13 mg/kg (Plasmodium yoelii, po, 96 h, naphthoquinone alone, 0.13 mg/Kg × 7): 1%
inhibition in vivo at 0.25 mg/kg (Plasmodium yoelii, po, 96 h, naphthoquinone alone, 0.25 mg/Kg × 7): 5%
% inhibition of parasitaemia (combination) (naphthoquinone 0.13 + clopidol 4.3 mg/Kg × 7): 84%
% inhibition of parasitaemia (combination) (naphthoquinone 0.13 + clopidol 13 mg/Kg × 7): 31%
% inhibition of parasitaemia (combination) (naphthoquinone 0.25 + clopidol 4.3 mg/Kg × 7): 97%
% inhibition of parasitaemia (combination) (naphthoquinone 0.25 + clopidol 13 mg/Kg × 7): 80%

CC(=O)OC1=C(C2CCCCC2)C(=O)c2ccccc2C1=O
inhibition in vivo at 2.5 mg/kg [1]: 2%
inhibition in vivo at 5 mg/kg [1]: 3%
% inhibition of parasitaemia (combination) [6]: 3%
% inhibition of parasitaemia (combination) [7]: 50%
% inhibition of parasitaemia (combination) [8]: 22%
% inhibition of parasitaemia (combination) [9]: 86%

O=C1C(O)=C(C2CCC(C3CCCCC3)CC2)C(=O)c2ccccc21 (stereo not shown) [2-(4-cyclohexylcyclohexyl)-3-hydroxy-1,4-naphthoquinone]
inhibition in vivo at 0.019 mg/kg (Plasmodium yoelii, po, 96 h, naphthoquinone alone, 0.019 mg/Kg/dose, 7 doses): 13%
inhibition in vivo at 0.037 mg/kg (Plasmodium yoelii, po, 96 h, naphthoquinone alone, 0.037 mg/Kg/dose, 7 doses): 28%
inhibition in vivo at 0.075 mg/kg (Plasmodium yoelii, po, 96 h, naphthoquinone alone, 0.075 mg/Kg/dose, 7 doses): 17%
inhibition in vivo at 0.15 mg/kg (Plasmodium yoelii, po, 96 h, naphthoquinone alone, 0.15 mg/Kg/dose, 7 doses): 16%
inhibition in vivo at 0.3 mg/kg (Plasmodium yoelii, po, 96 h, naphthoquinone alone, 0.30 mg/Kg/dose, 7 doses): 74%
inhibition in vivo at 0.6 mg/kg (Plasmodium yoelii, po, 96 h, naphthoquinone alone, 0.60 mg/Kg/dose, 7 doses): 99%
ED50 for naphthoquinone (fixed clopidol 0.000 mg/kg/dose (alone)): 0.224 (0.224 to 0.208) mg/Kg/dose
ED50 for naphthoquinone (fixed clopidol 0.94 mg/kg/dose): 0.109 (0.125 to 0.0909) mg/Kg/dose
ED50 for naphthoquinone (fixed clopidol 1.9 mg/kg/dose): 0.0762 (0.0975 to 0.0599) mg/Kg/dose
ED50 for naphthoquinone (fixed clopidol 3.75 mg/kg/dose): 0.0519 (0.0599 to 0.0450) mg/Kg/dose
ED50 for naphthoquinone (fixed clopidol 7.5 mg/kg/dose): 0.0219 (0.0274 to 0.0151) mg/Kg/dose
ED50 for naphthoquinone (fixed clopidol 15. mg/kg/dose): 0.0197 (0.0242 to 0.0121) mg/Kg/dose
% inhibition of parasitaemia (combination) (naphthoquinone 0.019 + clopidol 0.94 mg/Kg/dose): 16%
% inhibition of parasitaemia (combination) (naphthoquinone 0.019 + clopidol 1.9 mg/Kg/dose): 23%
% inhibition of parasitaemia (combination) (naphthoquinone 0.019 + clopidol 3.7 mg/Kg/dose): 11%
% inhibition of parasitaemia (combination) (naphthoquinone 0.019 + clopidol 7.5 mg/Kg/dose): 42%
% inhibition of parasitaemia (combination) (naphthoquinone 0.019 + clopidol 15 mg/Kg/dose): 48%
% inhibition of parasitaemia (combination) (naphthoquinone 0.037 + clopidol 0.94 mg/Kg/dose): 20%
% inhibition of parasitaemia (combination) (naphthoquinone 0.037 + clopidol 1.9 mg/Kg/dose): 23%
% inhibition of parasitaemia (combination) (naphthoquinone 0.037 + clopidol 3.7 mg/Kg/dose): 32%
% inhibition of parasitaemia (combination) (naphthoquinone 0.037 + clopidol 7.5 mg/Kg/dose): 73%
% inhibition of parasitaemia (combination) (naphthoquinone 0.037 + clopidol 15 mg/Kg/dose): 77%
% inhibition of parasitaemia (combination) (naphthoquinone 0.075 + clopidol 0.94 mg/Kg/dose): 35%
% inhibition of parasitaemia (combination) (naphthoquinone 0.075 + clopidol 1.9 mg/Kg/dose): 45%
% inhibition of parasitaemia (combination) (naphthoquinone 0.075 + clopidol 3.7 mg/Kg/dose): 69%
% inhibition of parasitaemia (combination) (naphthoquinone 0.075 + clopidol 7.5 mg/Kg/dose): 86%
% inhibition of parasitaemia (combination) (naphthoquinone 0.15 + clopidol 0.94 mg/Kg/dose): 62%
% inhibition of parasitaemia (combination) (naphthoquinone 0.15 + clopidol 1.9 mg/Kg/dose): 80%
% inhibition of parasitaemia (combination) (naphthoquinone 0.15 + clopidol 3.7 mg/Kg/dose): 92%
% inhibition of parasitaemia (combination) (naphthoquinone 0.30 + clopidol 0.94 mg/Kg/dose): 96%
% inhibition of parasitaemia (combination) (naphthoquinone 0.30 + clopidol 1.9 mg/Kg/dose): 98%

CC(C)(C)C1CCC(CC2=C(O)C(=O)c3ccccc3C2=O)CC1 (stereo not shown)
inhibition in vivo at 0.5 mg/kg [1]: 10%
inhibition in vivo at 1 mg/kg [1]: 19%
% inhibition of parasitaemia (combination) [2]: 17%
% inhibition of parasitaemia (combination) [3]: 61%
% inhibition of parasitaemia (combination) [4]: 52%
% inhibition of parasitaemia (combination) [5]: 93%

CC1(C)CCC(C2=C(O)C(=O)c3ccccc3C2=O)CC1
inhibition in vivo at 2.5 mg/kg [1]: 0%
inhibition in vivo at 5 mg/kg [1]: 0%
% inhibition of parasitaemia (combination) [6]: 22%
% inhibition of parasitaemia (combination) [7]: 45%
% inhibition of parasitaemia (combination) [8]: 46%
% inhibition of parasitaemia (combination) [9]: 73%

O=C1C(O)=C(C2CCC(c3ccc(Cl)cc3)CC2)C(=O)c2ccccc21 (stereo not shown)
inhibition in vivo at 0.01 mg/kg (Plasmodium yoelii, po, 96 h, naphthoquinone alone, 0.010 mg/Kg × 7): 5%
inhibition in vivo at 0.02 mg/kg (Plasmodium yoelii, po, 96 h, naphthoquinone alone, 0.020 mg/Kg × 7): 12%
% inhibition of parasitaemia (combination) (naphthoquinone 0.010 + clopidol 1.4 mg/Kg × 7): 29%
% inhibition of parasitaemia (combination) (naphthoquinone 0.010 + clopidol 4.3 mg/Kg × 7): 68%
% inhibition of parasitaemia (combination) (naphthoquinone 0.020 + clopidol 1.4 mg/Kg × 7): 55%
% inhibition of parasitaemia (combination) (naphthoquinone 0.020 + clopidol 4.3 mg/Kg × 7): 90%

O=C1C(O)=C(C2CCC(C3CCCCC3)CC2)C(=O)c2ccccc21 (stereo not shown) [drawing 17, 2-(4-cyclohexylcyclohexyl)-3-hydroxy-1,4-naphthoquinone]
inhibition in vivo at 0.075 mg/kg (Plasmodium yoelii, po, 96 h, naphthoquinone alone, 0.075 mg/Kg × 7): 17%
inhibition in vivo at 0.15 mg/kg (Plasmodium yoelii, po, 96 h, naphthoquinone alone, 0.15 mg/Kg × 7): 16%
% inhibition of parasitaemia (combination) (naphthoquinone 0.075 + clopidol 1.9 mg/Kg × 7): 45%
% inhibition of parasitaemia (combination) (naphthoquinone 0.075 + clopidol 3.75 mg/Kg × 7): 69%
% inhibition of parasitaemia (combination) (naphthoquinone 0.15 + clopidol 1.9 mg/Kg × 7): 80%
% inhibition of parasitaemia (combination) (naphthoquinone 0.15 + clopidol 3.75 mg/Kg × 7): 92%

O=C1C(O)=C(C2CCC(c3ccccc3)CC2)C(=O)c2ccccc21 (stereo not shown)
inhibition in vivo at 0.04 mg/kg (Plasmodium yoelii, po, 96 h, naphthoquinone alone, 0.040 mg/Kg × 7): 0%
inhibition in vivo at 0.05 mg/kg (Plasmodium yoelii, po, 96 h, naphthoquinone alone, 0.050 mg/Kg × 7): 0%
% inhibition of parasitaemia (combination) (naphthoquinone 0.040 + clopidol 1.9 mg/Kg × 7): 23%
% inhibition of parasitaemia (combination) (naphthoquinone 0.040 + clopidol 3.75 mg/Kg × 7): 39%
% inhibition of parasitaemia (combination) (naphthoquinone 0.050 + clopidol 1.9 mg/Kg × 7): 34%
% inhibition of parasitaemia (combination) (naphthoquinone 0.050 + clopidol 3.75 mg/Kg × 7): 73%

O=C1C(O)=C(C2CCCCC2)C(=O)c2ccccc21
inhibition in vivo at 1.5 mg/kg (Plasmodium yoelii, po, 96 h, naphthoquinone alone, 1.5 mg/Kg × 7): 1%
inhibition in vivo at 3 mg/kg [1]: 15%
% inhibition of parasitaemia (combination) (naphthoquinone 1.5 + clopidol 1.9 mg/Kg × 7): 47%
% inhibition of parasitaemia (combination) (naphthoquinone 1.5 + clopidol 3.75 mg/Kg × 7): 76%
% inhibition of parasitaemia (combination) (naphthoquinone 3.0 + clopidol 1.9 mg/Kg × 7): 64%
% inhibition of parasitaemia (combination) (naphthoquinone 3.0 + clopidol 3.75 mg/Kg × 7): 97%

CC(C)(C)C1CCC(C2=C(O)C(=O)c3ccccc3C2=O)CC1 (stereo not shown) [drawing 25]
inhibition in vivo at 0.6 mg/kg (Plasmodium yoelii, po, 96 h, naphthoquinone alone, 0.6 mg/Kg × 7): 24%
inhibition in vivo at 0.9 mg/kg (Plasmodium yoelii, po, 96 h, naphthoquinone alone, 0.9 mg/Kg × 7): 35%
% inhibition of parasitaemia (combination) (naphthoquinone 0.6 + clopidol 2.5 mg/Kg × 7): 74%
% inhibition of parasitaemia (combination) (naphthoquinone 0.6 + clopidol 5.0 mg/Kg × 7): 94%
% inhibition of parasitaemia (combination) (naphthoquinone 0.9 + clopidol 2.5 mg/Kg × 7): 96%
% inhibition of parasitaemia (combination) (naphthoquinone 0.9 + clopidol 5.0 mg/Kg × 7): 97%

O=C1C(O)=C(CCCCCCCCC2CCCCC2)C(=O)c2ccccc21
inhibition in vivo at 0.5 mg/kg [1]: 7%
inhibition in vivo at 1 mg/kg [1]: 19%
% inhibition of parasitaemia (combination) (naphthoquinone 0.50 + clopidol 2.5 mg/Kg × 7): 10%
% inhibition of parasitaemia (combination) (naphthoquinone 0.50 + clopidol 5.0 mg/Kg × 7): 45%
% inhibition of parasitaemia (combination) (naphthoquinone 1.0 + clopidol 2.5 mg/Kg × 7): 31%
% inhibition of parasitaemia (combination) (naphthoquinone 1.0 + clopidol 5.0 mg/Kg × 7): 55%

CCCCCCCCCC1=C(O)C(=O)c2ccccc2C1=O [(CH2)8 Me, 2-n-nonyl-3-hydroxy-1,4-naphthoquinone]
inhibition in vivo at 3 mg/kg [1]: 3%
inhibition in vivo at 9 mg/kg (Plasmodium yoelii, po, 96 h, naphthoquinone alone, 9.0 mg/Kg × 7): 69%
% inhibition of parasitaemia (combination) (naphthoquinone 3.0 + clopidol 1.4 mg/Kg × 7): 42%
% inhibition of parasitaemia (combination) (naphthoquinone 3.0 + clopidol 4.3 mg/Kg × 7): 76%
% inhibition of parasitaemia (combination) (naphthoquinone 9.0 + clopidol 1.4 mg/Kg × 7): 88%
% inhibition of parasitaemia (combination) (naphthoquinone 9.0 + clopidol 4.3 mg/Kg × 7): 99%
